# According to patent publication US9271984B2, “Treatment of type 1 diabetes” (POXEL, priority 2010, dated 2016):
# Tested on: rat pancreatic islets
# Experiment: Protective effect on beta cell death: quantification of cytoplasmic nucleosomes (apoptosis, Cell Death Detection ELISA) in cultured rat islets with or without cytokine cocktail
# Type: cell-based
# Procedure: Male Wistar rat islets (Elevage Janvier, Le Genest-St-Isle, France) were isolated using collagenase (Serva, Heidelberg, Germany) and cultured in RPMI at 11 mM glucose (Invitrogen, CA, USA) supplemented with 10% FCS (Fetal Calf Serum), 100 Units/ml penicillin, 100 μg/ml streptomycin and 100 μg/ml gentamycin in low-attachment 24-well plates (Corning, NY, USA). These islets were incubated with a cocktail of rat cytokines (TNF-alpha, IL-1beta and INF-gamma each at 2 ng/ml) for 24 hours (Brun T. et al., 2004 and 2007). […] Aliquots of the medium were used to measure insulin accumulated during the culture period using immune enzyme assay kits (Brunchwig, Basel, Switzerland). Furthermore, quantification of cytoplasmic nucleosomes, a direct indicator of apoptosis, was performed with the Cell Death Detection ELISA kit (Roche, Basel, Switzerland). Each condition was tested with 50 rat islets in duplicate and four independent experiments were performed. The results are provided as mean+/−sem and statistical analyses were performed using one-way ANOVA with Bonferroni and Dunnett post-hoc tests.
# The conditions without cytokines allowed the analysis of the specific effect of the compound on islets while the combination of the drug with cytokines allowed the study of the effect of Imeglimin on islets under an inflammatory stress. To measure cell death in islets, quantification of cytoplasmic nucleosomes in islet cells, a consequence of DNA fragmentation during apoptosis (Robertson et al., 2000), was performed. […] Furthermore, a negative control and a positive control were added to the conditions with and without cytokines to test the effectiveness of the protocol. […] The results of the quantification of cell death for each condition are presented on FIG. 1.
# [1] = with cytokines (TNF-alpha, IL-1beta, INF-gamma each 2 ng/ml, 24 hours), 100 μM
Molecule,protective properties against apoptosis on cultured rat islets (basal and inflammation-like apoptosis),"protection of islets from the cytokine stress (both doses (100 μM and 1 mM), cytokine cocktail 24 hours)",less apoptosis than cytokine-stressed islets [1] [%],less apoptosis than untreated islets [1] [%],"less apoptosis than cytokine-stressed islets (with cytokines, 1 mM) [%]","less apoptosis than untreated islets (with cytokines, 1 mM) [%]","potency relative to Exendin-4 (more potent) (with cytokines, lower concentration tested (100 μM) vs Exe-4 10 nM) [%]","level of protection relative to the Exendin-4 level (without cytokines, 100 μM vs Exe-4 10 nM)","less apoptosis than untreated islets (without cytokines, 100 μM, 24 hours culture) [%]","drop in apoptosis vs cytokine-stressed islets (with cytokines, Exe-4 10 nM) [%]","drop in apoptosis vs untreated islets (with cytokines, Exe-4 10 nM) [%]","decrease in cell death (without cytokines, Exe-4 10 nM, vs untreated islets) [%]"
"CC1N=C(N)NC(N(C)C)=N1.Cl (single isomer, unassigned; (+)) [(+)-2-amino-3,6-dihydro-4-dimethylamino-6-methyl-1,3,5-triazine hydrochloride]",protective properties against basal and inflammation-like apoptosis,completely protected,37,29,25,16,~50,two thirds,10,,,
Exendin-4 [reference compound],,,,,,,,,,29,20,16
